The structures appear in SMILES notation. Counter-ions that a name gives are not always drawn.

This note sets out measurements from patent US20080171737A1 (Wyeth, priority 2006, published 2008).

The target of one test is T1, human hNET (Homo sapiens, UniProt P23975).
T1 construct: expressed in transfected cells; host or cells: MDCK-Net6 (MDCK cells stably transfected with hNET)
T1 sequence (P23975 whole entry): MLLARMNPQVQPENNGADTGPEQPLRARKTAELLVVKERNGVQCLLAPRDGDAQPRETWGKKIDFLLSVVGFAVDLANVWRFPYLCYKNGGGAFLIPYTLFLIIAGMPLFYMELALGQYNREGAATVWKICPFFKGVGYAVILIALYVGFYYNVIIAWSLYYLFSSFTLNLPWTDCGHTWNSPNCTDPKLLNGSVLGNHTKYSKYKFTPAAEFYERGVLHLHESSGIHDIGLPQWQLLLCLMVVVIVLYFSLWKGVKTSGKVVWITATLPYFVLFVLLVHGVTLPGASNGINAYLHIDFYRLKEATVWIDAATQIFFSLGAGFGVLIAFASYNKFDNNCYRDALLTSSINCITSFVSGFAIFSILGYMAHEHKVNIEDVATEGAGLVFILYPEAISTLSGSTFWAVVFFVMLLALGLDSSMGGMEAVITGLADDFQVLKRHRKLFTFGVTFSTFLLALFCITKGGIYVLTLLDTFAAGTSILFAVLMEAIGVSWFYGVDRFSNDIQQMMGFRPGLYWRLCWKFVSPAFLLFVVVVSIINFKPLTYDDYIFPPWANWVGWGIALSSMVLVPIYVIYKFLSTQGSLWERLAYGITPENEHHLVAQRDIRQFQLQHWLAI
Briefly: Functional norepinephrine reuptake assay, Procedure B (6,000 cells/well). The class given is cell-based. Particulars: MDCK-Net6 cells, 6,000 cells/well, 16 nM 3H-norepinephrine; read-out: Procedure B hNET uptake IC50. The procedure:
For screening, 25 μl aliquots of compound solution at a 1 μM or 10 μM final concentration was delivered directly to cells.
For IC50 determinations, stock compounds were prepared at 10 mM from powder. The stock solution was diluted according to compound testing range. […] On the day of assay, 25 μl of compound solution at the specified concentrations were added to the plates containing cells. A DMSO stock of desipramine was prepared at 10 mM in DMSO and diluted for a final concentration of 20 μM to determine the non-specific reuptake.
MDCK-Net6 cells, stably transfected with human hNET (Pacholczyk, 1991), were maintained in growth media [high glucose DMEM (Gibco Cat. 11995), 10% FBS (dialyzed, heat-inactivated, Sigma, dialysed, heat inactivated, Lot# K0922 or equivalent) 1xPen/Strep, and 500 μg/ml G418 (Gibco Cat. 10131)]. Cells were plated at 300,000/T75 flask and cells split twice weekly.
Cells were plated at 50,000 cells/well (Procedure A) or 6,000 cells/well (Procedure B) on day 1 in BD Falcon Microtest 96-well sterile cell culture plates, Optilux White/Clear Bottom TC plate (VWR; # 62406-466 or equivalent) in growth media and maintained in a cell incubator (37° C., 5% CO2). On Day 2, cells were removed from the cell incubator and the growth media is replaced by 200 μl of assay buffer (25 mm HEPES 120 mM NaCL; 5 mM KCl; 2.5 mM CaCl2; 1.2 mM MgSO4; 2 mg/ml glucose (pH 7.4, 37° C.)) containing 0.2 mg/ml ascorbic acid and 1 μM parglyine. For screening, 25 μl of compound in 4% DMSO was added directly to each well and the plate was incubated for 5 minutes (37° C.). […] The reaction is aspirated from the plate and the cells washed with 250 μl of 50 mM Tris Buffer (4° C.). The plates were left to dry for 1 hour. The cells were lysed using 0.25 M NaOH solution then placed on a shake table and vigorously shaken for 10 minutes. After cell lysis, 100 μl of Microscint 20 (PerkinElmer; #87-051101) was added to the plates and the plates were sealed with film tape and replaced on the shake table for a minimum of 10 minutes. The plates were counted in a TopCount counter (PerkinElmer).
% inhibition=[1−((mean cpm test compound wells−mean cpm non-specific wells)/(mean cpm control wells−mean cpm non-specific wells))]×100
For IC50 determination, raw cpm values were generated in a data file from the TopCount counter. The data was organized using the Microsoft Excel and transferred into PRIZM graphing and statistical program, which calculated the estimated IC50 value. Calculation of IC50 values was made using non-linear regression analysis with a sigmoidal dose response with variable slope. The statistical program used wells containing ^3H norepinephrine only as the maximal NE reuptake determinant and wells containing ^3H norepinephrine plus 20 μM desipramine (AHR-9543) as the minimal NE reuptake determinant (non-specific determinant). Estimation of the IC50 value was completed on a log scale and the line was fit between the maximal and minimal NE reuptake values.
By IC50 is commonly meant the midpoint of a concentration-inhibition curve. As to `CNCCCC1Sc2ccccc2N(c2ccc(F)c(Cl)c2)S1(=O)=O` (stereo not drawn) [Example 68, 3-[1-(3-chloro-4-fluorophenyl)-2,2-dioxido-1H-2,4,1-benzodithiazin-3-yl]-N-methylpropan-1-amine Hydrochloride], the IC50 amounted to 471 nM.
In the case of `CNCCCC1Sc2ccccc2N(c2cccc(F)c2)S1(=O)=O` (stereo not drawn) [Example 61, 3-[1-(3-fluorophenyl)-2,2-dioxido-1H-2,4,1-benzodithiazin-3-yl]-N-methylpropan-1-amine hydrochloride], the IC50 is 80.7 nM.
As to `CNCCC[C@@H]1Cc2ccccc2N(c2ccc(F)cc2F)S1(=O)=O` (single isomer, unassigned) [Example 101], the IC50 was found to be 49 nM.
On the same count and under the same terms, as for `CNCCCC1Sc2ccccc2N(c2cccc(OC)c2)S1(=O)=O` (stereo not drawn) [Example 62, 3-[1-(3-methoxyphenyl)-2,2-dioxido-1H-2,4,1-benzodithiazin-3-yl]-N-methylpropan-1-amine Hydrochloride], the figure is 338 nM; as for `CNCCCC1Oc2ccccc2N(c2cccc(OC)c2)S1(=O)=O` (stereo not drawn) [Example 18, 3-[1-(3-methoxyphenyl)-2,2-dioxido-1H-4,2,1-benzoxathiazin-3-yl]-N-methylpropan-1-amine], 353 nM.
On to `CNCCC[C@H]1Cc2ccccc2N(c2ccccc2)S1(=O)=O` (single isomer, unassigned) [Example 10], for which the IC50 amounted to 96 nM.
Consider `CNCCC[C@H]1Cc2cc(F)ccc2N(c2cc(F)ccc2F)S1(=O)=O` (single isomer, unassigned) [Example 152], for which the IC50 was found to be 40 nM.
Still for that read-out and setting: to `CNCCCC1Oc2ccc(Cl)cc2N(c2ccccc2)S1(=O)=O` (stereo not drawn) [Example 53, 3-(7-chloro-2,2-dioxido-1-phenyl-1H-4,2,1-benzoxathiazin-3-yl)-N-methylpropan-1-amine] belongs 187 nM; to `CNCCCC1Oc2ccccc2N(c2ccc(OC)cc2)S1(=O)=O` (stereo not drawn) [Example 19, 3-[1-(4-methoxyphenyl)-2,2-dioxido-1H-4,2,1-benzoxathiazin-3-yl]-N-methylpropan-1-amine], 1200 nM; to `CCNCCCC1Oc2ccccc2N(c2ccccc2)S1(=O)=O` (stereo not drawn) [Example 34, 3-(2,2-dioxido-1-phenyl-1H-4,2,1-benzoxathiazin-3-yl)-N-ethylpropan-1-amine], 2580 nM.
For the compound `CN(C)CCCC1Oc2ccccc2N(c2ccccc2)S1(=O)=O` (stereo not drawn) [Example 80, 3-(2,2-dioxido-1-phenyl-1H-4,2,1-benzoxathiazin-3-yl)-N,N-dimethylpropan-1-amine hydrochloride], the IC50 was found to be 4160 nM.
As to `CNCCC[C@H]1Oc2cc(F)ccc2N(c2ccccc2)S1(=O)=O` (single isomer, unassigned) [Example 106], the IC50 was 97 nM.
Take `NCCNCC1Oc2ccccc2N(c2ccccc2)S1(=O)=O` (stereo not drawn) [Example 137, N-[(2,2-dioxido-1-phenyl-1H-4,2,1-benzoxathiazin-3-yl)methyl]ethane-1,2-diamine]: the IC50 is 193 nM.
Regarding `CNCCC[C@@H]1Cc2cc(Cl)ccc2N(c2ccccc2F)S1(=O)=O` (single isomer, unassigned) [Example 177], the IC50 is 43 nM.
Turning to `CNCCCC1Cc2cc(F)ccc2N(c2ccccc2C)S1(=O)=O` (racemic) [Example 160, 3-[6-fluoro-1-(2-methylphenyl)-2,2-dioxido-3,4-dihydro-1H-2,1-benzothiazin-3-yl]-N-methylpropan-1-amine], the IC50 worked out at 142 nM.
`CNCCC[C@@H]1Cc2cc(F)ccc2N(c2cc(F)ccc2F)S1(=O)=O` (single isomer, unassigned) [Example 153]: the IC50 was found to be 43 nM.
Take `CNCCC[C@H]1Cc2ccccc2N(c2ccc(F)cc2F)S1(=O)=O` (single isomer, unassigned) [Example 100]: the IC50 turned out to be 343 nM.

The test is the same for the next values; noted with them: MDCK-Net6 cells, 6,000 cells/well; Conc 6000 nM (6 μM); read-out: Procedure B hNET uptake (% inhibition).
The term inhibition denotes the drop in the measured response relative to a control, in per cent. Consider `O=S1(=O)C(CCN2CCCCC2)Oc2ccccc2N1c1ccccc1` (stereo not drawn) [Example 78, 1-phenyl-3-(2-piperidin-1-ylethyl)-1H-4,2,1-benzoxathiazine 2,2-dioxide hydrochloride], for which the inhibition at 6 µM worked out at 45%.
